Data from US20200405603A1, “COMPOSITIONS AND METHODS FOR TREATING SKIN CONDITIONS USING INFRARED LIGHT AND RESORCINOLS” (Johnson & Johnson Consumer Inc., priority 2019, published 2020).

Tested on: lamin b1 (LMNB1) gene expression
Assay: lamin B1 (LMNB1) gene expression assay (qPCR) in skin equivalents, with TNF-α to simulate photoaged skin
Format: cell-based, human
Method: The effects of IR light, hexyl resorcinol (HR), and combinations thereof on lamin B1 gene expression in the presence of TNF-α was tested as follows. TNF-α is known to play a primary role in the inflammation process upon ultraviolet (UV) irradiation and is stimulated by UVB.
Three human full-thickness skin equivalents (MatTek, Ashland, Mass.) were used for each treatment. The skin equivalents were treated with one of the following: (i) 100 ng/ml TNF-α in a medium (1× phenol-red free Hank's buffered saline solution (HBSS), (ii) a placebo formulation, (iii) a hexyl resorcinol formulation containing 0.5 weight percent hexyl resorcinol (HR) in the placebo formulation, (iv) infrared (IR) light (wavelength 830 nm) at 0.5 mW/cm^2 for 10 min (i.e. fluence at 0.3 J/cm^2), or (iv) combinations of these. TNF-α was used to simulate photoaged skin.
The placebo formulation contained the ingredients in Table 1. The hexyl resorcinol formulation contained the same ingredients plus 0.5 wt % hexyl resorcinol.
For the combination treatments, the formulations were first topically applied to the skin equivalents and left to stand for two hours. Next, the skin equivalents were irradiated with the IR light. Then the skin equivalents were incubated with or without 100 ng/ml TNF-α in the phenol-red-free medium for 24 hours.
Afterwards, the skin equivalents were collected in RNAlater solution (ThermoFisher Scientific, Bridgewater, N.J., USA) for RNA purification. The total RNAs were purified using a Qiagen RNeasy kit (Valencia, Calif., USA) following the manufacturer's instructions. RNA concentration was assessed using a Nanodrop 2000 spectrophotometer (ThermoFisher Scientific, Bridgewater, N.J., USA). Complementary DNA (cDNA) was performed using a High Capacity cDNA kit (ThermoFisher Scientific, Bridgewater, N.J., USA). TaqMan® gene expression assays for lamin b1 (LMNB1) and TATA-Box Binding Protein (TBP) and TaqMan® gene expression master mix from ThermoFisher Scientific (Bridgewater, N.J., USA) were used. Realtime polymerase chain reactions (qPCRs) of each treatment were performed using 5 ul of the 15 ul mixture of cDNAs pooled from three equivalent tissue replicates (i.e. mixing 5 ul of cDNA from each equivalent replicate). qPCRs were performed using a QuantStudio™ 7 Flex System (ThermoFisher Scientific, Bridgewater, N.J., USA). The RQ (relative quantitation) was calculated using the formula 2^-ΔΔCt.
The effects of red light (wavelength 640 nm, 0.3 J/cm^2) and HR on lamin B1 gene expression in the presence of TNF-α was tested using the same method as Example 1.

[1] = Example 2, treatment alone (no light, no other treatment)
[2] = treatment alone (no light, no other treatment), human full-thickness skin equivalents

## CCCCCCc1ccc(O)cc1O [hexyl resorcinol, 4-hexylresorcinol]
Combination with red light
  change in lamin B1 gene expression: no substantial change

## TNF-α
[1]
  Induced LMNB1 (RQ): 1.55 RQ
  Induced LMNB1 vs Untreated Control (RQ fold changes): 0.55 RQ fold changes
[2]
  Difference of Induced LMNB1 vs Untreated Control (RQ fold changes): 0.55 RQ fold changes
  LMNB1 Induction (RQ): 1.55 RQ
